# Assays:
# [1] = tested on: RSV strain A2; assay: Virus yield reduction in MA-104 cells; assay type: cell-based, Respiratory syncytial virus; settings: human respiratory syncytial virus, MA104, 96 h, RSV yield reduced by 90%, MOI = 0.005, added twice daily for 4 d
# Description: (§1) A comparison of the efficacies of spA4 -antiRSV3'3'T/(8281-8299) treatment and conventional ribarvirin treatment can be obtained by determining the RSV-inhibitory concentration and the cytotoxic concentration of each compound. Cultures of the human laryngeal carcinoma cell line HEp-2 and the […] renal cell line MA-104 were established and infected with an MOI=0.005. Cultures were fed twice daily. Treatment with either ribavirin or spA4 -antiRSV3'3'T/(8281-8299) was begun simultaneously with infection and continued for four days. Treatment was then withdrawn and the test read on day 5. The effects of treatment on RSV infection were reported as 1) an EC50, the concentration at which there was a 50% reduction in the observable cytopathic effects of infection and 2) an EC90, the concentration at which there was a 90% reduction in viral production. […] Therapeutic efficacy is estimated by the Selectivity Index, which is the ratio of IC50 /EC50.
# as determined with RSV strain A2, MOI = 0.005
# Fresh medium and oligo or ribavirin added twice daily for 4 d and test read
# EC90 effective concentration to reduce RSV yield by 90%.
# [2] = tested on: MA-104 Cells; assay: Cytotoxicity to MA-104 cells (visual and dye uptake, rapidly dividing cells); assay type: cell-based, murine; settings: MA104
# Description: as §1
# IC50 50% inhibitory concentration for cytotoxicity to cells (visual
# [3] = tested on: RSV strain A2; assay: Virus yield reduction assay in HEp-2 cells; assay type: cell-based, Respiratory syncytial virus; settings: human respiratory syncytial virus, compound added twice daily
# Protocol: EC50 & EC90 : concentration required to reduce virus (RSV strain
# Both compounds were added to the cells twice daily.
# [4] = tested on: RSV strain A2; assay: CPE inhibition assay in HEp-2 cells; assay type: cell-based, Respiratory syncytial virus; settings: for EC50: human respiratory syncytial virus
# Protocol: The CPE inhibition assay used in this study was performed as described by Sidwell and Huffman (Sidwell et al., 1971, Appl. Microbiol. 22:7979-7801) with slight modifications. Varying concentrations of test compounds were added to each plate containing near confluent cell monolayers (1×10^5 cells/well) followed immediately by the addition of virus at a multiplicity of infection (MOI)=0.01, and then incubated at 37° C. […] All compounds were assayed for virus inhibition in quadruplicate and for cytotoxicity in duplicate. For each compound, two wells were set aside as uninfected, untreated cell controls per test and four wells per test received virus only and represented controls for virus replication. […] For all CPE-based assays, the 50% effective concentration (EC50) was calculated by regression analysis using the means of the CPE ratings at each concentration of compound.
# [5] = tested on: RSV CH18537 (B); assay: CPE inhibition assay in HEp-2 cells, RSV strain CH18537; assay type: cell-based, Respiratory syncytial virus; settings: Table 12, CPE
# Protocol: (§2) The CPE inhibition assay used in this study was performed as described by Sidwell and Huffman (Sidwell et al., 1971, Appl. Microbiol. 22:7979-7801) with slight modifications. Varying concentrations of test compounds were added to each plate containing near confluent cell monolayers (1×10^5 cells/well) followed immediately by the addition of virus at a multiplicity of infection (MOI)=0.01, and then incubated at 37° C. On the following day, the medium from each plate was removed and fresh compound added. The assay was stopped at the end of the sixth day when the virus cytopathic effect in the virus infected, untreated control cells affected all cells. All compounds were assayed for virus inhibition in quadruplicate and for cytotoxicity in duplicate. For each compound, two wells were set aside as uninfected, untreated cell controls per test and four wells per test received virus only and represented controls for virus replication. […] For all CPE-based assays, the 50% effective concentration (EC50) was calculated by regression analysis using the means of the CPE ratings at each concentration of compound.
# (§3) In this series, MP351 was added once a day for two days with fresh medium
# [6] = tested on: RSV Long (A); assay: CPE inhibition assay in HEp-2 cells, RSV strain Long; assay type: cell-based, Respiratory syncytial virus; settings: Table 12, CPE
# Protocol: as §2, §3
# [7] = tested on: RSV 393 (clinical isolate); assay: CPE inhibition assay in HEp-2 cells, RSV 393; assay type: cell-based, Respiratory syncytial virus; settings: Table 12, CPE
# Protocol: as §2, §3
# [8] = tested on: RSV Long (A); assay: Neutral red uptake assay in HEp-2 cells, RSV strain Long; assay type: cell-based, Respiratory syncytial virus; settings: Table 12, neutral red
# Protocol: This assay was performed by a modified method as described by Cavenaugh et al. (Cavenaugh et al. 1990, Invest. New Drugs 8:347-354). Briefly, medium was removed from each well of a plate scored for CPE from a CPE inhibition assay, 0.2 ml of neutral red (0.034% in PSS) was added to each of the wells of that plate and the plate incubated for 2 hr at 37° C. in the dark. The neutral red solution was removed from the wells and the wells rinsed twice with PBS (pH 7.4). Equal volumes (0.1 ml) of absolute ethanol and Sorenson citrate buffer (0.1 M sodium citrate, 0.1 M HCI, pH 4.2) were mixed together and added to each well. Plates were incubated in the dark for 30 min. at room temperature to solubilize the dye. The plates were then gently mixed on a 96-well plate adapted vortexer for 1 min. Absorbances at 540 nm and 450 nm were read with a microplate reader (Bio-Tek EL 1309; Bio-Tek Instruments, Inc. Winooski, Vt.). Absorbance values were expressed as percents of untreated controls and EC50 and IC50 values were calculated by regression analysis.
# as §3
# [9] = human respiratory syncytial virus, 48 h, once a day for two days
smiles,measurement,setting,value
NC(=O)c1ncn([C@@H]2O[C@H](CO)[C@@H](O)[C@H]2O)n1 [Ribavirin],EC90,[1],7 µM
same,IC50,[2],210 µM
same,EC50,[3]; virus yield reduced by 50%,40 µM
same,EC90,[3]; virus yield reduced by 90%,80 µM
same,SI,"[4]; Table 10, CPE, B.I.D. 2 days, HEp2",> 57
same,SI,"[4]; Table 10, CPE, B.I.D. 3 days, HEp2",> 180
same,SI,"[4]; Table 10, CPE, B.I.D. 4 days, HEp2",57
same,SI,"[4]; Table 10, CPE, q.d. 1 day (added along with virus, never replenished), HEp2",57
same,SI,"[4]; Table 10, CPE, q.d. 3 days, HEp2",> 57
same,SI,"[4]; Table 10, CPE, q.d. 4 days, HEp2",> 57
same,SI,"[4]; Table 13, CPE, q.d., Day 0, HEp-2",30
same,SI,"[4]; Table 13, CPE, q.d., Day 1, HEp-2",8
same,SI,"[4]; Table 13, CPE, q.d., Day 2, HEp-2",80
same,EC50,"[4]; HEp-2, 0 h, Table 13, CPE, q.d., Day 0 (added immediately after virus exposure), HEp-2",12 µM
same,EC50,"[4]; HEp-2, 24 h, Table 10, CPE, q.d. 1 day (added along with virus, never replenished), HEp2",4 µM
same,EC50,"[4]; HEp-2, 24 h, Table 13, CPE, q.d., fresh compound up to Day 1 post infection, HEp-2",4 µM
same,EC50,"[4]; HEp-2, 48 h, Table 10, CPE, B.I.D. 2 days, HEp2, read-out: EC50",< 4 µM
same,EC50,"[4]; HEp-2, 48 h, Table 13, CPE, q.d., fresh compound up to Day 2 post infection, HEp-2, read-out: EC50",4 µM
same,EC50,"[4]; HEp-2, 72 h, Table 10, CPE, B.I.D. 3 days, HEp2, read-out: EC50",< 4 µM
same,EC50,"[4]; HEp-2, 72 h, Table 10, CPE, q.d. 3 days, HEp2, read-out: EC50",< 4 µM
same,EC50,"[4]; HEp-2, 96 h, Table 10, CPE, B.I.D. 4 days, HEp2, read-out: EC50",4 µM
same,EC50,"[4]; HEp-2, 96 h, Table 10, CPE, q.d. 4 days, HEp2, read-out: EC50",< 4 µM
same,SI,[5],52
same,EC50,[5]; [9],4 µM
same,SI,[6],17
same,EC50,[6]; [9],12 µM
same,SI,[7],24
same,EC50,[7]; [9],4 µM
same,SI,[8],23
same,EC50,[8]; [9],12 µM
